In ChEMBL document CHEMBL1144584, “Identification of novel short chain 4-substituted indoles as potent alphavbeta3 antagonist using structure-based drug design” (Eur J Med Chem, 2007):

Key:
[1] = Binding affinity to Integrin alpha-2b-beta-3a receptor by ELISA assay; set-up: species or system Homo sapiens
Integrin alpha-V/beta-5 = Integrin alpha-V/beta-5 (Homo sapiens, UniProt P06756+P18084); assay: Binding affinity to Integrin alpha-v-beta-5 receptor by ELISA assay; type: protein-complex assay
[2] = Binding affinity to Integrin […] receptor by ELISA assay; set-up: species or system Homo sapiens
Integrin alpha-V/beta-3 = Integrin alpha-V/beta-3 (Homo sapiens, UniProt P05106+P06756); assay: Binding affinity to Integrin alpha-v-beta-3 receptor by ELISA assay; type: protein-complex assay
[3] = Permeability from basolateral to apical side of human Caco-2 cell membrane; type: ADME, cell-based
[4] = Permeability from apical to basolateral side of human Caco-2 cell membrane; type: ADME, cell-based

Chain of Integrin alpha-V/beta-5 (P06756 31-889 limits assumed): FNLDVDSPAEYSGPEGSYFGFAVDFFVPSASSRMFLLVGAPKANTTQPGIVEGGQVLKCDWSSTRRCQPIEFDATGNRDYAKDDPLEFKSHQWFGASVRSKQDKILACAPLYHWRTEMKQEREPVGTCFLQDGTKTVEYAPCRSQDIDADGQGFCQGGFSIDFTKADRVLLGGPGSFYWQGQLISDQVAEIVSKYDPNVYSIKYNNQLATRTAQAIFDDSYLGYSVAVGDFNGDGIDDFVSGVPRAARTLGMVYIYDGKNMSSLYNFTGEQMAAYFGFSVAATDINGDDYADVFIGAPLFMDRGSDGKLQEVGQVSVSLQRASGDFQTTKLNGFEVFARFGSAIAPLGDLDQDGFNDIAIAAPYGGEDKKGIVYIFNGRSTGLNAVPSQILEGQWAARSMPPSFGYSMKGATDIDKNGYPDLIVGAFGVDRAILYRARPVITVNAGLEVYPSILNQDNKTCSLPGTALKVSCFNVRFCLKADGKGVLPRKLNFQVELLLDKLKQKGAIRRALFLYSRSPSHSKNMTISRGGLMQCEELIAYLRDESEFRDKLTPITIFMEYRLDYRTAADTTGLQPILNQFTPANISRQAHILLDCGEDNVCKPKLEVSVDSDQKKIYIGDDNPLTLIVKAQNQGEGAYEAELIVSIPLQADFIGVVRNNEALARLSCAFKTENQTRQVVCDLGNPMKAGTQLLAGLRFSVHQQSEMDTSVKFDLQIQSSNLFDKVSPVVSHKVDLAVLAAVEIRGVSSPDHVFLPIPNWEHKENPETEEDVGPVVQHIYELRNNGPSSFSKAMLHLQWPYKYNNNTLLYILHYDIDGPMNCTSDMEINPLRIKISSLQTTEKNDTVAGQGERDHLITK
Chain of Integrin alpha-V/beta-5 (P06756 891-1048 limits assumed): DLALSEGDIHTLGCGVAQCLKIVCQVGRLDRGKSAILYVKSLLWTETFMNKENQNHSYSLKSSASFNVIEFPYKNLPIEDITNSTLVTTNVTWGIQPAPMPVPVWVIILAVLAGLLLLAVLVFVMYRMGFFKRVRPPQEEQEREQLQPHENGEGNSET
Chain of Integrin alpha-V/beta-5 (P18084 24-799 limits assumed): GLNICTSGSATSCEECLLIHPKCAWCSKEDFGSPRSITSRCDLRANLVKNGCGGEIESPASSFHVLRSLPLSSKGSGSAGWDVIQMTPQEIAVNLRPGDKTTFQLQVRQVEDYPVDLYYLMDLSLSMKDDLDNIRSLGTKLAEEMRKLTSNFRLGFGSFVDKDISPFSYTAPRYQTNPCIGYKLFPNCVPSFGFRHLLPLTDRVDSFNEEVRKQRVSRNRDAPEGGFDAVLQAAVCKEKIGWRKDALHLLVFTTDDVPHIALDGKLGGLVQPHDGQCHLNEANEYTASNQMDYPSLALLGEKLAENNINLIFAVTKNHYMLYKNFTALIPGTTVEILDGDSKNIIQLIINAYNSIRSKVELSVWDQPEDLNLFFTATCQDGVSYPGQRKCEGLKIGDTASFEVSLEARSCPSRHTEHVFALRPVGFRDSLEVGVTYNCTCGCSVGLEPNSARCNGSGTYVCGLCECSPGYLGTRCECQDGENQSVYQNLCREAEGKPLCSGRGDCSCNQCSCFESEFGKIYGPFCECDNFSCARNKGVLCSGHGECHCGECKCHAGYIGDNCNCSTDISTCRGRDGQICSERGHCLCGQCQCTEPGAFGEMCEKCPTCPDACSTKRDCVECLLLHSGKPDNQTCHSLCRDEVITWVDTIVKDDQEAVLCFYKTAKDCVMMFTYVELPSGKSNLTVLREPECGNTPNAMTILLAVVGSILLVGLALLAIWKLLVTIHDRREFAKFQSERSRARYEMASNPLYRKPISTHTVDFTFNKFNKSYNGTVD
Chain of Integrin alpha-V/beta-3 (P05106 27-788 limits assumed): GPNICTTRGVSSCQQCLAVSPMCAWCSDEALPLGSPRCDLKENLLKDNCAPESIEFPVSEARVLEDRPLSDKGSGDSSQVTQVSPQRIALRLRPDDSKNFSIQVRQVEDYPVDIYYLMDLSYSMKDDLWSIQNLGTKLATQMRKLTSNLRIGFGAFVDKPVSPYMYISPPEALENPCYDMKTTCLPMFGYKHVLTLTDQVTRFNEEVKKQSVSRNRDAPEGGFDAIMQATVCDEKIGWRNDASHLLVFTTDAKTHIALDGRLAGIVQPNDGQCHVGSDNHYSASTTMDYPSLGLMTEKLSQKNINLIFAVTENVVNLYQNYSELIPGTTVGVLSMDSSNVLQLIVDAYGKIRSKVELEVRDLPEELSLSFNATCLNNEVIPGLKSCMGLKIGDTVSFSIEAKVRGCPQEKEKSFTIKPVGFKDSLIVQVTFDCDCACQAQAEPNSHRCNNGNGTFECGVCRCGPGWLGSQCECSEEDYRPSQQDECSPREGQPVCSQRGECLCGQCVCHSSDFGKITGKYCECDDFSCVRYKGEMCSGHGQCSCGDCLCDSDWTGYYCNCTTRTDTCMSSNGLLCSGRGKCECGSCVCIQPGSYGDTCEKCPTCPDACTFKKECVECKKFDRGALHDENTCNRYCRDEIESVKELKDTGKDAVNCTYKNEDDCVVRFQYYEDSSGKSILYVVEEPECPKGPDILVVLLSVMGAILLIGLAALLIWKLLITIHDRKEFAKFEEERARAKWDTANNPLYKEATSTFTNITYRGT
Chain of Integrin alpha-V/beta-3 (P06756 31-889 limits assumed): as the sequence (P06756 31-889 limits assumed) above
Chain of Integrin alpha-V/beta-3 (P06756 891-1048 limits assumed): as the sequence (P06756 891-1048 limits assumed) above

Row | Compound | IC50 [1] [nM] | IC50 (Integrin alpha-V/beta-5) [nM] | IC50 [2] [nM] | IC50 (Integrin alpha-V/beta-3) [nM] | Papp B→A [3] [×10⁻⁶ cm/s] | Papp A→B [4] [×10⁻⁶ cm/s]
1 | O=C(O)CC(c1cccnc1)n1ccc2cc(OCCc3ccc4c(n3)NCCC4)ccc21 (centres undefined) | > 1000 | 0.21 | 15 | – | – | –
2 | O=C(O)CC(c1ccc2c(c1)OCO2)n1ccc2cc(OCCc3ccc4c(n3)NCCC4)ccc21 (centres undefined) | > 1000 | 0.5 | 24 | – | – | –
3 | O=C(O)CC(c1ccccc1)n1ccc2c(CCc3ccc4c(n3)NCCC4)cccc21 (centres undefined) | > 1000 | 1.1 | 107 | 0.96 | – | –
4 | O=C(O)CC(c1cccnc1)n1ccc2c(CCc3ccc4c(n3)NCCC4)cccc21 (centres undefined) | > 1000 | 0.96 | 250 | 0.5 | 2.5 | 2.2
5 | O=C(O)CC(c1ccccc1)n1ccc2cc(OCCc3ccc4c(n3)NCCC4)ccc21 (centres undefined) | > 1000 | 0.68 | 41 | – | – | –
6 | O=C(O)CC(c1ccccc1)n1ccc2cc(CCCc3ccc4c(n3)NCCC4)ccc21 (centres undefined) | > 1000 | 15 | 1100 | 14 | – | –
7 | O=C(O)CC(c1cccnc1)n1ccc2c(NCc3ccc4c(n3)NCCC4)cccc21 (centres undefined) | > 1000 | 11 | 9400 | 4.4 | – | –
8 | CC(C)[C@H]1C(=O)N[C@@H](CCCNC(=N)N)C(=O)NCC(=O)N[C@@H](CC(=O)O)C(=O)N[C@H](Cc2ccccc2)C(=O)N1C [CILENGITIDE] | > 1000 | – | 14 | – | – | –
